In patent publication US20090030067A1, “Anti-proliferative combination therapy comprising satraplatin or jm118 and a taxane” ((GPC Biotech AG), priority 2005, published 2009):

Experiments:
[1] = tested on: A129 cp80; assay: SRB cytotoxicity assay, cisplatin-resistant A129 cp80 cell line; type: cell-based
Procedure: The parental non-mutated cell line A129 was used as control.
Briefly, cells were plated in 96 well dishes 24 hours prior to compound addition. The assay was terminated with the addition of cold TCA to a final concentration of 10% and the plates were incubated for one hour at 4° C. The plates were then washed 5 times with water and 100 μl of a Sulforhodamine B solution ([…]) was added to each well. The plate was then incubated for 10 minutes at room temperature before removal of unbound dye by washing with 1% acetic acid. The bound dye was solubilized with 10 mM Trizma base and the absorbance read at OD570.

[2] = tested on: A129; assay: SRB cytotoxicity assay, parental A129 cell line; type: cell-based; details: 48 hours, mean and standard deviation
[3] = tested on: human non small cell lung cancer (NSCLC) cell line H460; assay: H460 xenograft model, satraplatin and docetaxel
[4] = tested on: human H460 non small cell lung cancer (NSCLC) cell line; assay: H460 xenograft model, satraplatin and paclitaxel
[5] = docetaxel 25 mg/kg iv d7, d14, of 10 animals
[6] = paclitaxel 25 mg/kg/day iv, Exp. A
[7] = paclitaxel 25 mg/kg/day iv, Exp. B
[8] = paclitaxel 40 mg/kg/day iv, Exp. A
[9] = paclitaxel 40 mg/kg/day iv, Exp. B
[10] = satraplatin 35 mg/kg/day po, Exp. B
[11] = satraplatin 40 mg/kg/day po, Exp. B
[12] = satraplatin 50 mg/kg/day po, Exp. A

N.N.[Cl][Pt][Cl] [Cisplatin, cisplatin]
IC50 ([1]; 48 hours, SRB assay, mean and standard deviation): 15.1 µM | RR (relative resistance) ([1]; A129 cp80 versus A129): 80 +/− 25 | IC50 [2]: 0.23 µM

CC(=O)O[C@@]12CO[C@@H]1C[C@H](O)[C@@]1(C)C(=O)[C@H](O)C3=C(C)[C@@H](OC(=O)[C@H](O)[C@@H](NC(=O)OC(C)(C)C)c4ccccc4)C[C@@](O)([C@@H](OC(=O)c4ccccc4)[C@H]21)C3(C)C [Docetaxel, N-debenzoyl-N-tert-butoxycarbonyl-10-deacetyl paclitaxel]
LCK (Td = 2.7) ([3]; docetaxel 25 mg/kg iv d7, d14): 0.76 | Max TGI (d) ([3]; docetaxel 25 mg/kg iv d7, d14, maximum observed on day 13): 64.7 (13) % | CR (number of animals with complete tumor regression) [3, 5]: 0 | Cure [3, 5]: 0 | PR (number of animals with partial tumor regression) [3, 5]: 0 | Toxic Deaths [3, 5]: 0

CC(=O)O[C@H]1C(=O)[C@@]2(C)[C@H]([C@H](OC(=O)c3ccccc3)[C@]3(O)C[C@H](OC(=O)[C@H](O)[C@@H](NC(=O)c4ccccc4)c4ccccc4)C(C)=C1C3(C)C)[C@]1(OC(C)=O)CO[C@@H]1C[C@@H]2O [Paclitaxel, paclitaxel]
LCK [4, 6]: 0.6 | Max TGI % [4, 6]: 56% | Toxic deaths/total [4, 6]: 0/10 | LCK [4, 7]: 0.7 | Max TGI % [4, 7]: 47% | Toxic deaths/total [4, 7]: 0/10 | LCK [4, 8]: 0.7 | Max TGI % [4, 8]: 64% | Toxic deaths/total [4, 8]: 0/10 | LCK [4, 9]: 1.0 | Max TGI % [4, 9]: 59% | Toxic deaths/total [4, 9]: 0/10 | tumor growth delay equivalent, LCK ([4]; paclitaxel 40 mg/kg/day, in two experiments): 0.7-1.0 LCK | tolerability and activity as single agent ([4]; paclitaxel at both doses tested, 25 and 40 mg/kg/day): tolerated and active

CC(=O)[O][Pt]([NH2])([Cl])([Cl])([NH]C1CCCCC1)[O]C(C)=O [Satraplatin, satraplatin]
Max % BW loss [4, 10]: 12% | Toxic deaths/total [4, 10]: 0/10 | Max % BW loss [4, 11]: 16% | Toxic deaths/total [4, 11]: 4/10 | Max % BW loss [4, 12]: 26% | Toxic deaths/total [4, 12]: 9/10 | Max % BW loss ([3]; satraplatin 25 mg/kg po d8-12, d15-19): 6.1% | Toxic Deaths ([3]; satraplatin 25 mg/kg po d8-12, d15-19, of 10 animals): 0 | Max % BW loss ([3]; satraplatin 35 mg/kg po d8-12, d15-19): 9.7% | Toxic Deaths ([3]; satraplatin 35 mg/kg po d8-12, d15-19, of 10 animals): 1
